According to paper PMC4176947 (Journal of natural products, 2012):
Starred links: 1 amine or outer side, 2 acyl side, 3 side chain; linkers in the order of their positions; H or OH if unused. Non-standard residues stand in square brackets, D forms with d. Residues, ends and D or L forms follow the SMILES beside them. *: point of attachment. X1 = O=C([C@H]1CSC([C@@H](Cc2ccccc2)N[*:1])=N1)[*:2]; Allyl(1,1-Me2) = C=CC(C)(C)*

What was measured:
[1] = target: wild-type HIV-1 integrase (Human immunodeficiency virus type 1 group M subtype B, UniProt P04585); assay type: biochemical; conditions: at 100 µg/mL
[2] = test system: HIV-infected 1A2 cells (a subclone of CEM-SS TART cells); assay: Cytoprotective cell-based anti-HIV assay; conditions: at 78 µM
[3] = cited from earlier work
[4] = test system: adipocyte differentiation; conditions: cited from earlier work
HIV integrase = conditions: cited from earlier work

With `C=CC(C)(C)O[C@H](C)[C@@H]1NC(=O)[C@H]2CSC(=N2)[C@@H](Cc2ccccc2)NC(=O)[C@@H]2CCCN2C(=O)[C@H](CO)NC(=O)[C@H](CC(C)C)NC1=O` [Compound 1, Mollamide E] (cyclo(LSP[X1]T(Allyl(1,1-Me2)))) the “HIV-1 integrase inhibition at single concentration” value [1] was “no activity” and the “HIV inhibition in cytoprotective assay at single concentration” value [2] was “did not show any inhibition”.

For `O=C(NCCc1ccccc1)NCCc1ccccc1C(=O)NCCc1ccccc1` [Compound 3, Molleurea A], the “HIV-1 integrase inhibition at single concentration” value [1] was “no activity”.

For `O=C(NCCc1ccccc1)NCCc1ccccc1` [N, N’-diphenethylurea], the Antidepressant action [3] is given as “act as an antidepressant” and the “Promotion of adipocyte differentiation” value [4] is given as “promote adipocyte differentiation”.

In the case of `CC(C)C[C@@H]1NC(=O)[C@@H]2CCCN2C(=O)[C@H](C(C)C)NC(=O)c2csc(n2)CNC(=O)c2csc(n2)[C@H](CCC(N)=O)NC1=O` [dolastatin 3], the “HIV integrase inhibition activity” value (HIV integrase) is given as “HIV integrase inhibition activity”.
